PMC3925040 (British Journal of Pharmacology, 2014)

Experiments:
[1] = target: T1, transient receptor potential melastatin 3 (TRPM3) (Mus musculus, UniProt J9SQF3); test: whole-cell patch clamp inhibition of PS-evoked current in HEK293 cells; assay type: cell-based; settings: HEK293, read-out: % inhibition at 21 μM
[2] = target: T1, transient receptor potential melastatin 3 (TRPM3); test: Fura2 Ca2+ imaging in HEK293 cells, inhibition of PS response at […]; assay type: cell-based

T1 sequence (J9SQF3 1-1709 isoform J9SQF3-12): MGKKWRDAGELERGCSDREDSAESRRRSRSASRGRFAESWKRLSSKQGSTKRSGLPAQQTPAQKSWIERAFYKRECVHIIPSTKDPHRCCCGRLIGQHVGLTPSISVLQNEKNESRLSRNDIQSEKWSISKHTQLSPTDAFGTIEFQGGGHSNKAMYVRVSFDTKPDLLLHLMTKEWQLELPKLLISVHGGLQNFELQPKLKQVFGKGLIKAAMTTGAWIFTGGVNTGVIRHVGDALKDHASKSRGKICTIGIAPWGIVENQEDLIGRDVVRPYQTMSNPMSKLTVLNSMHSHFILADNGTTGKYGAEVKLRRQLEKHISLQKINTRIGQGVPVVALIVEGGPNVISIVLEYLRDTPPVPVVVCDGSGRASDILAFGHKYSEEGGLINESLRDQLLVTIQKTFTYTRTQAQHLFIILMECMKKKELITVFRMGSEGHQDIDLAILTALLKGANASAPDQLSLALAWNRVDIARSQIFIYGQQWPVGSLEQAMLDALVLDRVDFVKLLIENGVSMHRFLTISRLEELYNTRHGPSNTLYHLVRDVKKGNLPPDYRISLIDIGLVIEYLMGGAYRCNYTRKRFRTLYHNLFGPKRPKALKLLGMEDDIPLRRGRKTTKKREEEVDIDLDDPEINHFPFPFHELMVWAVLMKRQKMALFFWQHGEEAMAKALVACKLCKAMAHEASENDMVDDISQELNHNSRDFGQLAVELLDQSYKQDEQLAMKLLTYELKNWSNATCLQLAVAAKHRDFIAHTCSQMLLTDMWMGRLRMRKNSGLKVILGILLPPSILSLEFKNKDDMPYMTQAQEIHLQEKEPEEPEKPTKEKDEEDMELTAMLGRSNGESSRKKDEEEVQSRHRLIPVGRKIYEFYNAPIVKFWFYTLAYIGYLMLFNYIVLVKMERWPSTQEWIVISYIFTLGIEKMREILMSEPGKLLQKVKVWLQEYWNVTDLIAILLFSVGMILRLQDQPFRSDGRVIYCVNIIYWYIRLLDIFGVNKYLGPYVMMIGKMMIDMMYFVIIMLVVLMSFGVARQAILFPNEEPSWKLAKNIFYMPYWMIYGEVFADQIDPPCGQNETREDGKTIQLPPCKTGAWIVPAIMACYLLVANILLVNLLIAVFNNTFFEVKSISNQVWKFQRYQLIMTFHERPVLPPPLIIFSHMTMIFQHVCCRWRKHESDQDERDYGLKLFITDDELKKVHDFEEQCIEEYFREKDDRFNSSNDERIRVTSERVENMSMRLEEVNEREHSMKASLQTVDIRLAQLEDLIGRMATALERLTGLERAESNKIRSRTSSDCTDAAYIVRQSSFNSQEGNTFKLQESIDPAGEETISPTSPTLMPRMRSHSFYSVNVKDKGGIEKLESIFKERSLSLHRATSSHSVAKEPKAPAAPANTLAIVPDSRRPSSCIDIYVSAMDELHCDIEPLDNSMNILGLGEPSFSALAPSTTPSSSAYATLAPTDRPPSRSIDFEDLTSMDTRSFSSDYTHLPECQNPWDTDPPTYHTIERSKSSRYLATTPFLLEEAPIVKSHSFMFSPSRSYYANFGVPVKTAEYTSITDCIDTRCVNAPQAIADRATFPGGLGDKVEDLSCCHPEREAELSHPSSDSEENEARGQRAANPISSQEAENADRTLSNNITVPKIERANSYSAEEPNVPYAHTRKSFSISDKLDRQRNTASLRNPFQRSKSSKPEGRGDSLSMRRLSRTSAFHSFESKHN

COCCOC(=O)C1=C(C)NC(C)=C(C(=O)OC(C)C)C1c1cccc([N+](=O)[O-])c1 (centres unmarked) [nimodipine]
inhibition at 21 µM [1]: 70.2%

COC(=O)C1=C(C)NC(C)=C(C(=O)OCCN(C)Cc2ccccc2)C1c1cccc([N+](=O)[O-])c1 (centres unmarked) [Nic, nicardipine]
Fura2 Ca2+ imaging in HEK293 cells, inhibition of PS response at 50 μM [2]: nicardipine also inhibited PS-induced TRPM3 activation
